Data: patent publication US20100093738A1, “Fungicidal Compounds and Fungicidal Compositions” (BASF SE, priority 2006, published 2010)

Experiments:
Pyricularia oryzae = assay: microbe, parasite or virus in culture; type: cell-based; details: for inhibition at 0.25 ppm: Pyricularia oryzae, 168 h, read-out: Observed activity (%)
Botrytis cinerea = assay: Activity against the gray mold pathogen Botrytis cinerea in the microtiter test; type: cell-based; details: 168 h, single active compound, day 7, read-out: Observed activity (%); for inhibition at 1 ppm: conc. 1 ppm, efficacy in % of untreated control

Structure (SMILES)	inhibition at 0.25 ppm (Pyricularia oryzae) [%]	inhibition at 1 ppm (Botrytis cinerea) [%]	further results
Fc1ccc([C@]2(Cn3cncn3)O[C@H]2c2ccccc2Cl)cc1 [II.5, epoxiconazol]	–	–	Observed activity (%) (Pyricularia oryzae; single active compound, conc. 0.25 ppm, day 7): 4%
Cc1cc(C2CC2)nc(Nc2ccccc2)n1 [II.2, cyprodinil]	63	–	inhibition at 0.063 ppm (Botrytis cinerea; conc. 0.063 ppm): 72%
O=C(Nc1ccccc1-c1ccc(Cl)cc1)c1cccnc1Cl [II.3, boscalid]	–	58	–
COC(=O)N(OC)c1ccccc1COc1ccn(-c2ccc(Cl)cc2)n1 [II.1, pyraclostrobin]	–	19	–
CC(C1CC1)C(O)(Cn1cncn1)c1ccc(Cl)cc1 (stereo not drawn) [II.4, cyproconazol]	0	–	–
